Two molecules from patent US11203757B2, “Use of Rad18 inhibitors in the treatment of tumors” (Centre National De La Recherche Scientifique, priority 2014, dated 2021) can be followed below.

Assay type in all cases: cell-based
For series [1], the system named is U87-MG glioblastoma cells. Nature of the series: CellTiter-Glo cell viability of U87-MG cells treated with P2207. The note with it: indicated doses of P2207, 48 h post-treatment, FIG. 7. The protocol: FIG. 7. […] Survival curves of U87-MG glioblastoma cells treated with the indicated doses of the USP7 inhibitor P2207 (Sigma-Aldrich), or DMSO as a control. Means and standard deviations are shown (n=3). Cell viability is expressed as percent (%) of viability compared to the control (DMSO).
Cells were plated at 1.0×10^4 cells/well in 12-well plates and exposed to the indicated amount of P2207 inhibitor (Sigma) or DMSO as control. 48 h post-treatment, cell viability was determined using the CellTiter-Glo luminescent cell viability assay (Promega).

For series [2], the system named is U87 glioblastoma cell line. Kind of series: Cell viability of U87 cells transfected with Rad18 siRNA and challenged with cisplatin. To be noted: U87 cells co-transfected with siRNA and empty vector, increasing cisplatin, CellTiter-Glo; rescued by re-expression of Rad18. The text has this:
(E) Survival curves of U87 glioblastoma cells co-transfected with empty vector and non-specific siRNA (siLuc+EV), or Rad18-specific siRNA and empty vector (siRad18+EV) and rescued by co-transfection with Rad18 (siRad18+Rad18), challenged with the indicated doses of cisplatin (CisPt) normalized to non-treated cells (mock). Means and standard deviations are shown (n=3).
U87 cells were co-transfected either with siRNA Rad18 (GAG GAU UCU UCU AGC UGU A; SEQ ID NO:3) or siRNA Luciferase (Luc) as a control and an empty vector (pcDNA3) or Rad18 expressing vector using JETPrime reagent (Polyplus). Twenty-four hours after transfection, cells were trypsinized and seeded in 12 wells plates at a density of 10 000 cells/well. Twenty-four hours later cells were treated with increasing concentration of cisplatin (Sigma).
Cells were plated at 1×10^4 per well in twelve-well plates and UV-irradiated or exposed to the indicated amount of cisplatin (CisPt, Sigma). 48 hours after irradiation, cell viability was determined using the CellTiter-Glo® Luminescent Cell Viability assay (Promega).

Series [3] has as its system Gb4 glioblastoma cancer stem cells. Nature of the series: Proliferation of gliospheres after Rad18 siRNA treatment. To be noted: 72 hours post-treatment, absence of external damage, versus control siRNA (siLuc). The protocol: FIG. 6. Rad18 downregulation affects the proliferation of glioblastoma cancer stem cells in the absence of external damage. (A) Western blot of Gb4 glioblastoma cancer stem cells extracts treated with control siRNA (siLuc, lane 1), or a Rad18-specific siRNA (siRad18, lane 2) analysed 72 hours post-treatment. Extracts were probed with anti-Rad18 or anti-PCNA antibodies. (B) Phase contrast microscopy images of gliospheres treated with control siRNA or Rad18-specific siRNA 72 hours post-treatment. (C) Quantification of gliospheres proliferation upon downregulation of Rad18 expression expressed as number of cells. Glioblastoma cancer stem cells extracts were treated as described in panel A and cells were counted before (0 h) or 72 hours post-treatment (72 h).
Glioblastoma cancer stem cells (Gliospheres, Gb4 and Gb7 cell lines) were isolated from patients as described in Clarion et al, 2014.
Cells were maintained in DMEM-F12 (Lonza, Levallois-Perret, France) supplemented with B27 and N2 (Invitrogen, LifeTechnologies, Saint Aubin, France), 25 ng/ml of FGF-2 and EGF (Peprotech, Neuilly sur Seine, France) at 37° C. in 5% CO2 humidified incubators.
Gb4 glioblastoma cancer stem cells extracts, treated with control siRNA or a Rad18-specific siRNA (SEQ ID NO:3) were analysed 72 hours post-treatment. […]

`CC(=O)c1cc([N+](=O)[O-])c(Sc2ccc(F)cc2F)s1` [P2207]: the “sensitization of glioblastoma to cisplatin treatment (cell viability, % of DMSO control)” value in series [1] is on record as “sensitizes glioblastoma to cisplatin treatment”.

Regarding “GAG GAU UCU UCU AGC UGU A (GAGGAUUCUUCUAGCUGUA; listed as RNA, chemistry not given here) [Rad18-specific siRNA]”, in series [2], the “sensitivity to cisplatin (cell viability)” value was “strong sensitivity to cisplatin”. Besides, in series [3], the “proliferation of gliospheres (number of cells)” value is recorded as “affect the proliferation of gliospheres”.
